Measurements reported in PubChem BioAssay AID2060906 (Molecular Pharmacology Branch, DTP, NCI, 2025).

System: 485176-168-R4-J1-PDC complex spheroid growth
Test: Anticancer human tumor 485176-168-R4-J1-PDC patient-derived pancreatic adenocarcinoma cell line growth inhibition [RAS]
Details: for IC50: curve of first compound; for viability, T/C: stronger effect = lower value
Summary of the method: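 Multi-cell-type spheroids: tumor cells plus HUVEC endothelial cells and mesenchymal stem cells. RAS-pathway inhibitors were combined with targeted agents, each dosed in half-log steps down from clinical Cmax, or from 10 microM when Cmax was unknown.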
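Further: spheroids exposed to compounds for seven days before readout.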
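Wherever viability, T/C is given: luminescence viability expressed relative to DMSO vehicle wells set as 100%.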

CC(=O)OC12COC1CC(O)C1(C)C(=O)C(O)C3=C(C)C(OC(=O)C(O)C(NC(=O)OC(C)(C)C)c4ccccc4)CC(O)(C(OC(=O)c4ccccc4)C21)C3(C)C (configuration not stated) + C=CC(=O)N1CCN(c2nc(OCC3CCCN3C)nc3c(F)c(-c4nc(N)cc(C)c4C(F)(F)F)c(Cl)cc23)C(C)C1
IC50 (second compound 0.00316 µM): < 31.6 nM
IC50 (second compound 0.01 µM): < 31.6 nM
IC50 (second compound 0.0316 µM): < 31.6 nM
IC50 (second compound 0.1 µM): < 31.6 nM
IC50 (second compound 0.316 µM): < 31.6 nM
IC50 (second compound 1 µM): < 31.6 nM
viability, T/C (second compound 0.00316 µM, first compound 0.0316 µM): 13.2%
viability, T/C (second compound 0.00316 µM, first compound 0.1 µM): 9.9%
viability, T/C (second compound 0.00316 µM, first compound 0.316 µM): 13.1%
viability, T/C (second compound 0.00316 µM, first compound 1 µM): 11.3%
viability, T/C (second compound 0.00316 µM, first compound 3.16 µM): 15.8%
viability, T/C (second compound 0.00316 µM, first compound 10 µM): 18.9%
viability, T/C (second compound 0.01 µM, first compound 0.0316 µM): 17%
viability, T/C (second compound 0.01 µM, first compound 0.1 µM): 12.3%
viability, T/C (second compound 0.01 µM, first compound 0.316 µM): 11.4%
viability, T/C (second compound 0.01 µM, first compound 1 µM): 11.7%
viability, T/C (second compound 0.01 µM, first compound 3.16 µM): 13.7%
viability, T/C (second compound 0.01 µM, first compound 10 µM): 16.3%
viability, T/C (second compound 0.0316 µM, first compound 0.0316 µM): 15.2%
viability, T/C (second compound 0.0316 µM, first compound 0.1 µM): 13.6%
viability, T/C (second compound 0.0316 µM, first compound 0.316 µM): 12%
viability, T/C (second compound 0.0316 µM, first compound 1 µM): 15.1%
viability, T/C (second compound 0.0316 µM, first compound 3.16 µM): 13.3%
viability, T/C (second compound 0.0316 µM, first compound 10 µM): 17.9%
viability, T/C (second compound 0.1 µM, first compound 0.0316 µM): 13.3%
viability, T/C (second compound 0.1 µM, first compound 0.1 µM): 13.8%
viability, T/C (second compound 0.1 µM, first compound 0.316 µM): 10.5%
viability, T/C (second compound 0.1 µM, first compound 1 µM): 11.3%
viability, T/C (second compound 0.1 µM, first compound 3.16 µM): 16.7%
viability, T/C (second compound 0.1 µM, first compound 10 µM): 17.9%
viability, T/C (second compound 0.316 µM, first compound 0.0316 µM): 18.4%
viability, T/C (second compound 0.316 µM, first compound 0.1 µM): 13.3%
viability, T/C (second compound 0.316 µM, first compound 0.316 µM): 11.8%
viability, T/C (second compound 0.316 µM, first compound 1 µM): 9.75%
viability, T/C (second compound 0.316 µM, first compound 3.16 µM): 15.5%
viability, T/C (second compound 0.316 µM, first compound 10 µM): 19.4%
viability, T/C (second compound 1 µM, first compound 0.0316 µM): 12.6%
viability, T/C (second compound 1 µM, first compound 0.1 µM): 9.69%
viability, T/C (second compound 1 µM, first compound 0.316 µM): 9.77%
viability, T/C (second compound 1 µM, first compound 1 µM): 9.87%
viability, T/C (second compound 1 µM, first compound 3.16 µM): 15.3%
viability, T/C (second compound 1 µM, first compound 10 µM): 18.2%
